In patent publication US5612188A, “Automated, multicompartmental cell culture system” (Cornell Research Foundation, Inc., priority 1994, dated 1997):
Read-outs that look alike come from different tables or passages of the source.

Assays:
liver GSH [1] = conditions: cited from earlier work
lung GSH = conditions: after BSO, before 200 mg/kg naphthalene; cited from earlier work
mouse liver microsomes [2] = conditions: Observed; 1 mM naphthalene, 5 mM GSH; cited from earlier work
mouse liver microsomes [3] = conditions: cited from earlier work
liver GSH [4] = conditions: 200 mg/kg oral, rat, 6 1/2 hours; observed; cited from earlier work
[5] = Biotransformation of naphthalene by mouse liver microsomes; assay type: in vitro ADME; conditions: mouse, liver microsomes; read-out: Km, N to 1R, 2S NO
Procedure: (§1) Biotransformation rates of naphthalene at initial concentrations of 0.05, 0.1 and 1.0 mM by lung and liver microsomes have been determined (O'Brien, et al. (1985), supra, Buckpitt, A. R., Bahnson, L. S., and Franklin, R. B., "Hepatic and Pulmonary Microsomal Metabolism of Naphthalene to Glutathione Adducts: Factors Affecting the Relative Rates of Conjugate Formation", J. Pharmacol. Exp. Ther. 231: 291-300 (1984), which is hereby incorporated by reference), and Buckpitt, A. R., Castagnoli, Jr., N., Nelson, et al., "Stereoselectivity of Naphthalene Epoxidation by Mouse, Rat, and Hamster Pulmonary, Hepatic and Renal Microsomal Enzymes", Drug Metab. Dispos. 15: 491-498 (1987), which is hereby incorporated by reference). Assuming Michaelis-Menten kinetics, fitting s/v vs s was used to provide Vmax and Km values. Since mouse liver produces the 1R,2S- and 1S,2R-naphthalene oxide enantiomers in equal amounts at all substrate concentrations (Buckpitt, et al., 1987, supra), the calculated Vmax was divided by two to give the production rates for each enantiomer.

mouse liver microsomes [6] = test: as above; assay type: in vitro ADME; conditions: Mouse, Liver
Procedure: as §1

[7] = Biotransformation of naphthalene by rat liver microsomes; assay type: in vitro ADME
Text: (§2) Determination of Vmax's and Km's for naphthalene oxide production and Vmax's for GSH conjugates and dihydrodiol production in rat microsomes were done in the same way as for the mouse. Sources of data were Buckpitt, et al, 1987, supra, Hesse, S. and Mezger, M., "Involvement of Phenolic Metabolites in the Irreversible Protein-binding of Aromatic Hydrocarbons: Reactive Metabolites of [^14 C]-naphthalene and [^14 C] 1-naphthol Formed by Rat Liver Microsomas", Mol. Pharmacol. 16: 667-675 (1979) which is hereby incorporated by reference, O'Brien et al., 1985, supra, van Bladeren et al., 1985, supra, and Yost, G. S., Buckpitt, A. R., Roth, R. A., and McLemore, T. L., "Mechanisms of Lung Injury by Systematically Administered Chemicals", Toxicol. Appl. Pharmacol. 101: 179-195 (1989), which is hereby incorporated by reference.

mouse liver = conditions: 200 mg/kg naphthalene, cited from earlier work
CD-1 mice = conditions: po, cited from earlier work
mouse lung microsomes [8] = conditions: cited from earlier work
Sherman rats = conditions: po, cited from earlier work
mouse lung = conditions: cited from earlier work; for Covalent binding in the lung: Male Swiss-Webster mouse, ip
[9] = Biotransformation of naphthalene by rat lung microsomes; assay type: in vitro ADME
Text: as §2

Clara cells of the lung = conditions: similar binding levels in lung and liver; cited from earlier work
[10] = Biotransformation of naphthalene by mouse lung microsomes; assay type: in vitro ADME; conditions: mouse, lung microsomes
Procedure: as §1
(§3) For the lung, the biotransformation of naphthalene was modeled as the sum of two separate reactions, each producing a different enantiomer, with the Vmax's summing to the value calculated as described above.

mouse lung microsomes [11] = test: as above; assay type: in vitro ADME
Procedure: as §1, §3

[12] = Liver, Experiment, 0.1 mM naphthalene, 6 minutes
[13] = Lung, Experiment, 0.1 mM naphthalene, 6 minutes
[14] = [N] 1.0 mM, Buckpitt et al., 1987

CCCCS(=N)(=O)CCC(N)C(=O)O (stereo not shown) [BSO, buthionine sulfoximine]
GSH level in liver, percent of control (liver GSH [1]; after BSO, before 200 mg/kg naphthalene): 35% | hepatic and pulmonary GSH (liver GSH [1]; mice pretreated with BSO): hepatic and pulmonary GSH are depleted | GSH depletion, liver versus lung (liver GSH [1]; treatment of mice with BSO): depletes GSH in the liver more than in the lung | GSH level in lung, percent of control (lung GSH): 86%

c1ccc2ccccc2c1 [naphthalene]
1,2 dihydrodiol formation rate (mouse liver microsomes [2]): 2.43 nmol/mg/min | Conjugate 2 formation rate (mouse liver microsomes [2]): 3.64 nmol/mg/min | Conjugates 1 and 3 formation rate (mouse liver microsomes [2]): 3.56 nmol/mg/min | Covalently bound (mouse liver microsomes [3]; [12]): 5.8 nmol/mg | Diol formed (mouse liver microsomes [3]; [12]): 11.9 nmol/mg | NOH formed (mouse liver microsomes [3]; [12]): 3.5 nmol/mg | 1R,2S- and 1S,2R-naphthalene oxide enantiomers produced (mouse liver microsomes [3]; mouse liver, all substrate concentrations): equal amounts | liver GSH, percent of the initial concentration (liver GSH [4]): 17% | Km [5]: 307 µM | Vmax, N to 1R, 2S NO (mouse liver microsomes [6]): 6.95 nmol/mg/min | Vmax, N to 1S, 2R NO (mouse liver microsomes [6]): 6.95 nmol/mg/min | Km ([7]; read-out: Km, N to 1R, 2S NO): 400 µM | Km ([7]; read-out: Km, N to 1S, 2R NO): 800 µM | observed binding level in liver (mouse liver; with BSO pretreatment): 1069 pmol/mg | observed binding level in liver (mouse liver; without BSO): 255 pmol/mg | LD50 (CD-1 mice; female CD-1 mice): 710 mg/kg | LD50 (CD-1 mice; male CD-1 mice): 533 mg/kg | Covalently bound (mouse lung microsomes [8]; [13]): 7.4 nmol/mg | Diol formed (mouse lung microsomes [8]; [13]): 4.2 nmol/mg | NOH formed (mouse lung microsomes [8]; [13]): 21.2 nmol/mg | observed ratio of conjugates of 1R, 2S and 1S, 2R naphthalene oxide (mouse lung microsomes [8]; [N] 0.015 mM, Buckpitt and Franklin, 1989): 30 | observed v (mouse lung microsomes [8]; [N] 0.05 mM, O'Brien et al., 1985): 1.33 nanomoles of product/mg micros | observed v (mouse lung microsomes [8]; [N] 0.10 mM, Buckpitt et al., 1984): 6.01 nanomoles of product/mg micros | observed ratio of conjugates of 1R, 2S and 1S, 2R naphthalene oxide (mouse lung microsomes [8]; [14]): 10 | observed v (mouse lung microsomes [8]; [14]): 8.3 nanomoles of product/mg micros | LD50 (Sherman rats; female Sherman rats): 2400 mg/kg | LD50 (Sherman rats; male Sherman rats): 2200 mg/kg | experimental covalent binding in lung (mouse lung; 200 mg/kg naphthalene, with BSO pretreatment): 411 pmol/mg | experimental covalent binding in lung (mouse lung; 200 mg/kg naphthalene, without BSO): 137 pmol/mg | experimental increase in lung covalent binding by BSO (mouse lung; 200 mg/kg naphthalene): 3.0 factor | Covalent binding in the lung (mouse lung; 300 mg/kg): 675 pmol/mg | Covalent binding in the lung (mouse lung; 400 mg/kg): 912 pmol/mg | Km ([9]; read-out: Km, N to 1R, 2S NO): 400 µM | Km ([9]; read-out: Km, N to 1S, 2R NO): 1540 µM | site of toxicity (Clara cells of the lung): toxicity is limited to the Clara cells of the lung | Km ([10]; read-out: Km, N to 1R, 2S NO): 100 µM | Km ([10]; read-out: Km, N to 1S, 2R NO): 400 µM | Vmax, N to 1R, 2S NO (mouse lung microsomes [11]): 9.0 nmol/mg/min | Vmax, N to 1S, 2R NO (mouse lung microsomes [11]): 1.1 nmol/mg/min
